# Data from PubChem BioAssay AID1963435 (Molecular Pharmacology Branch, DTP, NCI, 2024).
# System: PANC-1 complex spheroid growth, percent test/control
# Assay: Anticancer human tumor PANC-1 cell line growth inhibition [Asc];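 also: spheroids exposed to agents for 7 days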;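 as to viability, T/C: percent viability relative to DMSO vehicle wells taken as 100%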
# Conditions: for IC50: curve of first compound; for viability, T/C: stronger effect = lower value
# Experimental: Multicellular complex tumor spheroid response to apoptosis pathway targeting inhibitors Alrizomadlin, Pelcitoclax, and Dasminapant in combination with a variety of drugs and investigational agents in selected tumor cell lines
# The MDM2 inhibitor alrizomadlin, the Bcl-2/Bcl-xL inhibitor pelcitoclax, and the IAPs inhibitor dasminapant were evaluated both individually and in combination with standard of care and investigational anticancer small molecules within a complex spheroid model of solid tumors. . Complex spheroids include a stromal component modeled by human endothelial cells (HUVEC) and fibroblasts modeled by human mesenchymal stem cells (MSCs). The concentration ranges selected for each drug and investigational agent were based upon clinically achievable concentrations if the clinical Cmax of the agent was known.
# Compounds. The drugs and investigational agents: alrizomadlin (APG-115; NSC831270), pelcitoclax (APG-1252; NSC835773), dasminapant (APG-1387;NSC834197), TAK-243 (NSC785004), copanlisib (NSC809693), olaparib (NSC753686), talazoparib (NSC767125), cobimetinib (NSC 768068), eltanexor (KPT-8602, NSC 794443), abemaciclib (NSC 768073), sotorasib (NSC818433), adagrasib (NSC 831453), MRTX-1133 (NSC 836407), Iadademestat (ORY1001, NSC 806812), and RMC-4630 (NSC839698), were obtained from the NCI Developmental Therapeutics Program Chemical Repository. The FDA-approved anticancer drug set is available from the Developmental Therapeutics Program at https://dtp.cancer.gov/organization/dscb/obtaining/available plates.htm. […] The stock solutions were prepared in dimethyl sulfoxide (DMSO, Sigma-Aldrich, St. Louis, MO, cat. D2650) at 800-fold the tested concentration and stored at -70 degrees C prior to their use. All drugs and investigational agents were tested over a range starting from a high concentration at or near the clinical Cmax and decreasing in half-log increments. If the clinical Cmax for an agent had not been determined, the highest concentration tested was 10 microM.
# The patient-derived cancer (PDC) cell lines include five colon adenocarcinomas: 186277-243-T-J2-PDC, 616215-338-R-J1-PDC, 439559-082-T-J2-PDC, 463943-066-T-J2-PDC, and 519858-162-T-J1-PDC; three pancreatic carcinomas: 323965-272-R-J2-PDC, 521955-158-R6-J3-PDC, and 521955-158-R2-J5-PDC; two uterine sarcomas: 327498-152-R-J2-PDC and 993429-296-R-J1-PDC; two rhabdomyosarcomas: 755483-174-R-J1-PDC and 772245-204-R-J1-PDC; two soft tissue sarcomas: 126254-015-R-J1-PDC and 494315-158-R-J1-PDC; two malignant fibrous histiocytomas: 317291-083-R-J1-PDC and 596521-263-R-J1-PDC; two breast carcinomas: 171881-019-R-J1-PDC and 885512-296-R-J2-PDC; and one ovarian carcinoma: 6556581-035-R-J-PDC were obtained from the NCI PDMR, (https://pdmr.cancer.gov). The established cell lines HSSY-2 synovial sarcoma (RRID:CVCL 8719), SYO-1 synovial sarcoma (RRID:CVCL_7146), MPNST malignant peripheral neural sheath tumor were obtained from the Sloan Kettering Institute. The following established cell lines were purchased from the American Type Culture Collection (ATCC, Manassas, VA), Sor the received from the NCI repository:, PANC-1 pancreatic carcinoma (CRL-1469, RRID:CVCL_0480), OVCAR-5 ovarian carcinoma (RRID:CVCL_1628), OVCAR-8 ovarian carcinoma (RRID:CVCL_1629), , MCF-7 breast carcinoma (CRL-12584, RRID:CVCL_0031), MDA-MB-231 breast carcinoma (CRL-12532, RRID:CVCL_0062), NCI-H1876 small cell lung carcinoma (CRL-5902, RRID:CVCL_1503), NCI-H510A small cell lung carcinoma (HTB-184, RRID:CVCL_1565), NCI-H1417 (CRL-5869, RRID:CVCL_1469), and NCI-H196 small cell lung carcinoma (CRL-5823, RRID:CVCL_1509). Dr. Peter Houghton (Greehey Children's Cancer Research Institute, University of Texas Health Science Center, San Antonio, TX) provided Rh-18 rhabdomyosarcoma (RRID:CVCL_1659). Pooled donor human umbilical vein endothelial cells (HUVEC, Lonza, cat. CC-2519) and human mesenchymal stem cells (hMSC, Lonza, cat. PT-2501) were purchased from Lonza (Walkersville, MD).
# Cell Culture. […]
smiles,measurement,setting,value
NC(=O)C(=Cn1cnc(-c2cc(C(F)(F)F)cc(C(F)(F)F)c2)n1)c1cncnc1 + CCN1C(C(=O)NC23CCC(C(=O)O)(CC2)CC3)C(c2cccc(Cl)c2F)C2(C(=O)Nc3cc(Cl)ccc32)C12CCCCC2,IC50,second compound 0.00949 µM,> 300 nM
same,IC50,second compound 0.03 µM,> 300 nM
same,IC50,second compound 0.0949 µM,> 300 nM
same,IC50,second compound 0.3 µM,> 300 nM
same,IC50,second compound 0.949 µM,> 300 nM
same,IC50,second compound 3 µM,> 300 nM
same,"viability, T/C","second compound 0.00949 µM, first compound 0.000949 µM",101%
same,"viability, T/C","second compound 0.00949 µM, first compound 0.003 µM",90.1%
same,"viability, T/C","second compound 0.00949 µM, first compound 0.00949 µM",90%
same,"viability, T/C","second compound 0.00949 µM, first compound 0.03 µM",104%
same,"viability, T/C","second compound 0.00949 µM, first compound 0.0949 µM",114%
same,"viability, T/C","second compound 0.00949 µM, first compound 0.3 µM",92.2%
same,"viability, T/C","second compound 0.03 µM, first compound 0.000949 µM",95.6%
same,"viability, T/C","second compound 0.03 µM, first compound 0.003 µM",95.5%
same,"viability, T/C","second compound 0.03 µM, first compound 0.00949 µM",98.6%
same,"viability, T/C","second compound 0.03 µM, first compound 0.03 µM",91.3%
same,"viability, T/C","second compound 0.03 µM, first compound 0.0949 µM",115%
same,"viability, T/C","second compound 0.03 µM, first compound 0.3 µM",104%
same,"viability, T/C","second compound 0.0949 µM, first compound 0.000949 µM",89.6%
same,"viability, T/C","second compound 0.0949 µM, first compound 0.003 µM",101%
same,"viability, T/C","second compound 0.0949 µM, first compound 0.00949 µM",90.1%
same,"viability, T/C","second compound 0.0949 µM, first compound 0.03 µM",92.4%
same,"viability, T/C","second compound 0.0949 µM, first compound 0.0949 µM",117%
same,"viability, T/C","second compound 0.0949 µM, first compound 0.3 µM",99.5%
same,"viability, T/C","second compound 0.3 µM, first compound 0.000949 µM",100%
same,"viability, T/C","second compound 0.3 µM, first compound 0.003 µM",89.6%
same,"viability, T/C","second compound 0.3 µM, first compound 0.00949 µM",89.1%
same,"viability, T/C","second compound 0.3 µM, first compound 0.03 µM",103%
same,"viability, T/C","second compound 0.3 µM, first compound 0.0949 µM",117%
same,"viability, T/C","second compound 0.3 µM, first compound 0.3 µM",93.8%
same,"viability, T/C","second compound 0.949 µM, first compound 0.000949 µM",97.5%
same,"viability, T/C","second compound 0.949 µM, first compound 0.003 µM",100%
same,"viability, T/C","second compound 0.949 µM, first compound 0.00949 µM",105%
same,"viability, T/C","second compound 0.949 µM, first compound 0.03 µM",99.3%
same,"viability, T/C","second compound 0.949 µM, first compound 0.0949 µM",125%
same,"viability, T/C","second compound 0.949 µM, first compound 0.3 µM",97.7%
same,"viability, T/C","second compound 3 µM, first compound 0.000949 µM",120%
same,"viability, T/C","second compound 3 µM, first compound 0.003 µM",107%
same,"viability, T/C","second compound 3 µM, first compound 0.00949 µM",113%
same,"viability, T/C","second compound 3 µM, first compound 0.03 µM",112%
same,"viability, T/C","second compound 3 µM, first compound 0.0949 µM",121%
same,"viability, T/C","second compound 3 µM, first compound 0.3 µM",96.6%
